Source: patent US20140363486A1, “METHODS FOR REDUCING OR ALTERING SCAR FORMATION” (Prelief, Inc., priority 2007, published 2014)

Tests used:
[1] = tested on: wounds resulting from an excision surgery to the nose; assay: Bilateral surgical nose excision wounds, one wound treated; assay type: in vivo, human; details: left-side wound
Excerpt: FIGS. 3a-3f illustrate the wound healing effect of a glycerophosphate salt on wounds resulting from an excision surgery, e.g., to the nose. A subject received two surgically inflicted wounds to their nose occasioned by removal of benign growths. […] Per physician's request, Neosporin® was applied to both wounds for one week, and Cellerity® was applied topically to the worst of the two wounds, i.e., the left-side surgical wound (on the right side of the photographs), twice daily. The subject was instructed to return to the laboratory for weekly observations.

[2] = tested on: rhino mucosal passage inflammation; assay: Observation of low CGP concentrations on rhino mucosal passage inflammation; assay type: in vivo; details: lower concentrations, between 1% and 2% by weight
Excerpt: In one embodiment of the present invention, an effective amount of a glycerophosphate salt, in a form of dry powder, granules, or gel is applied directly to the wound via spray, physical transfer by finger or implement to form a coating on the wound. The coating can contain a final local concentration of the glycerophosphate salt of about 0.5%-100% by weight. For example, the final local concentration of the glycerophosphate salt can be about 0.5% to about 5%, about 5% to about 15%, about 15% to about 25%, about 25% to about 35%, about 35% to about 45%, about 45% to about 55%, about 55% to about 65%, about 65% to about 75%, about 75% to about 85%, or about 85% to about 100%, by weight.

[3] = tested on: burn wound to the inner forearm; assay: Burn wound to the inner forearm, right side of the wound treated; assay type: in vivo, human
Excerpt: Color variations in the background of the photos are an artifact of the time of the day and the location when the pictures were taken.
FIGS. 4a-4f illustrate the wound healing effect of a glycerophosphate salt on a burn wound to the inner forearm of a human subject. […] The left-side of the wound received no treatment.

[4] = tested on: surgical wounds resulting from double knee replacement operations; assay: 20-patient clinical study, surgical wounds from double knee replacement operations, one leg treated; assay type: in vivo, human
Excerpt: FIGS. 2a-2d are black and white photocopies of the color photographs of the knees of another human subject. They received simultaneous bilateral total knee replacements. […] Their left leg (on the right side of the photographs) received no CGP treatment.
FIGS. 2a, 2b, 2c and 2d, which are black and white photocopies of the color photographs of the knees of one of the 20 human subjects, illustrate the exemplary results from the clinical study. The subject received simultaneous bilateral total knee replacements. […] Their left leg (on the right side of the photographs) received no CGP treatment. Since the commencement of the treatment, 2 ml of Cellerity® 10 lotion was topically applied to the wounds of the knee surgeries twice daily everyday and will continue for 6 consecutive weeks.
The untreated leg, in contrast, has deep, wandering scars that are almost chasms in their depth and raw openness.
In contrast, SteriStripes were required to be applied to the untreated leg and continued for an additional 6 days.
In addition, two subjects of the first five subjects enrolled in the double knee replacement clinical study described above reported they felt “less heat” in their knee incision site treated with CGP than in the untreated knee site during the early weeks of post operative recovery.

calcium glycerophosphate [CGP] was tested, and the wound appearance ([1]; after 6 days of CGP treatment) was “appeared less deep than it was a week ago”, the wound appearance ([1]; after 16 days of CGP treatment) was “appeared significantly advanced” and the wound appearance ([1]; after 30 days of CGP treatment) was “healed, fully recolonized with epidermal skin”. For the same substance, the wound appearance ([1]; after 36 days of CGP treatment) was “completely healed”, the wound appearance ([1]; after 51 days of CGP treatment) was “completely healed” and the “wound healing, subject's report” value ([1]; after one day of treatment, Cellerity (7.5% (w/w) CGP) twice daily, Neosporin on both wounds for one week) was “almost immediate apparent change in wound healing in favor of the CGP treated site”. The “effect on apparent rhino mucosal passage inflammation” value [2] was “favorably affect”, the “time at which the wound healing improvement effect was first observed” value ([3]; Cellerity lotion (7.5% (w/w) CGP) twice daily for the first three days, from 24 hours post infliction) was 3 days and the wound status ([3]; after 16 days of CGP treatment, 7.5% lotion for three days, then 37% (w/w) CGP paste, the untreated side still had a pinkish color) was “completely healed and disappeared”. The “healing of the surgical wound / surgical scar” value ([4]; Cellerity 10 lotion (10% (w/w) CGP), 2 ml twice daily from approx. 72 hours post operation, up to 14 days post operation, vs untreated leg) was “healed dramatically better”, the “swelling and continuing pale inflammation” value ([4]; Cellerity 10 lotion twice daily, 14 days post operation, observed in the untreated leg) was “showed neither” and the “need for SteriStrips post staple removal” value ([4]; treated leg, the untreated leg required SteriStrips for an additional 6 days) was “alleviated the need for application of SteriStrips”. The “heat felt in the knee incision site” value ([4]; two of the first five subjects enrolled, treated vs untreated knee site, early weeks of post operative recovery) was “less heat”.
